Laboratory results from patent US12110533B2, “Stabilisation and isolation of extracellular nucleic acids” (Qiagen GmbH, priority 2011, dated 2024).
pIC50: −log10 of the molar value. Peptide text beside a SMILES is read from it. * marks the point of attachment. Cbz = O=C(OCc1ccccc1)*; CH2Cl = ClC*; CH2F = FC*

Assays:
calpain II = target: T1, calpain II (Homo sapiens, UniProt P17655); details: irreversible inhibitor; cited from earlier work
T1 sequence (P17655 1-700): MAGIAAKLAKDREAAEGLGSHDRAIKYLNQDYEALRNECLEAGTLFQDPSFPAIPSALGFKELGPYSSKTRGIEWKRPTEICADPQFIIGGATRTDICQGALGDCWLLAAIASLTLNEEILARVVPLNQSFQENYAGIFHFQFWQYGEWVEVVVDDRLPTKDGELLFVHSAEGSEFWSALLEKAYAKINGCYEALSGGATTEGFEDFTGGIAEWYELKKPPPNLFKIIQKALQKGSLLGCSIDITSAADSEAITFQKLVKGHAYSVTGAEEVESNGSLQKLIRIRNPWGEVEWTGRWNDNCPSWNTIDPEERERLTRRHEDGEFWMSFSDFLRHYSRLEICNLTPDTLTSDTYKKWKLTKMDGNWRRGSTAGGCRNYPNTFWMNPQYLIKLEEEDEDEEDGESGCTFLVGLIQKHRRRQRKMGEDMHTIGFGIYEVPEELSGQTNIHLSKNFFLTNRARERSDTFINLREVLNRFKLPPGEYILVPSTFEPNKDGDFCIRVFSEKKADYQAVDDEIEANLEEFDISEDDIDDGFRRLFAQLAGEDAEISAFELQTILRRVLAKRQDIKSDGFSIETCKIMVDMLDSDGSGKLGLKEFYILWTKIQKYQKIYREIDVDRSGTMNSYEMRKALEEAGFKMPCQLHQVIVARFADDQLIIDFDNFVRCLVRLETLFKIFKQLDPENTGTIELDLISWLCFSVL
T1 sequence (P04632 1-268 partner): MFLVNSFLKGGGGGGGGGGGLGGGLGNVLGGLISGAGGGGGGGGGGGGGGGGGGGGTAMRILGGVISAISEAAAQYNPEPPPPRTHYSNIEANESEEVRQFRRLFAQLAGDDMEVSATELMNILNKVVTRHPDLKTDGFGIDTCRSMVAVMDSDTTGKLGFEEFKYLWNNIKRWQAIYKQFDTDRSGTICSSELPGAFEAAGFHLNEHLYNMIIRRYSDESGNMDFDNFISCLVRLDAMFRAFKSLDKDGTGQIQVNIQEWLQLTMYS

cathepsin L = cathepsin L (Homo sapiens, UniProt P07711); details: cited from earlier work
fragmentin 2 = target: T2, fragmentin 2 (Rattus norvegicus, UniProt P18291); details: read-out: ID50 (the source's name); cited from earlier work
T2 sequence (P18291 21-248): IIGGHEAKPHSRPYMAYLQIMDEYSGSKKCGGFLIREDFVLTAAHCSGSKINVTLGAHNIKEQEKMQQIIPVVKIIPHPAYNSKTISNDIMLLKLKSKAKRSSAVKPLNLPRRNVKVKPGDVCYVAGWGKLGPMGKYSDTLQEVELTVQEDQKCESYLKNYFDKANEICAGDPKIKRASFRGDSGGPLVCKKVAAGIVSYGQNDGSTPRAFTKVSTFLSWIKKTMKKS

[1] = administered in rats in vivo; cited from earlier work
whole blood samples [2] = assay: Chip gel electrophoresis of DNA isolated from plasma of stored whole blood (DNA size distribution, blood cell stability/DNA release); format: cell-based; details: for ladder-like pattern (release/fragmentation of genomic DNA): Example 1, 20 μM in 10 ml K2E whole blood, RT, day 3 and day 7, vs DMSO control and K2E blood; for genomic DNA release/fragmentation: Example 2, day 7, RT
Description: A test system was designed, wherein cell-containing biological samples, here whole blood samples, were incubated at room temperature (RT) for up to 6 or 7 days. Therein, the sample stabilizing properties of the additives of the present invention were tested on day 0, day 3 and day 6/7 the samples. The samples were processed according to the following protocols, where applicable (for details, see also the specific examples in the results section):
To separate the blood plasma from the whole blood, the blood samples were centrifuged for 15 min at 5000 rpm, and the obtained plasma samples were again centrifuged for 10 min at 16,000×g at 4° C.
(§1) The circulating, extracellular nucleic acids were purified from the obtained plasma samples using the QIAamp® Circulating NA Kit (according to the handbook). In brief: • 10 ml sample input; • lysis: 1 ml Proteinase K and 8 ml Buffer ACL (QIAGEN) • binding: 18 ml Buffer ACB (QIAGEN) • wash-steps: unchanged and according to handbook • elution in 60 μl Buffer AVE (QIAGEN)
4.1. Measurement of the blood cell stability/DNA release by the determination of DNA size distribution using a chip gel electrophoresis (2100 Bioanalyzer; Agilent Technologies; Inc., USA) according to manufacturer's instruction (see handbook Agilent DNA 7500 and DNA 12000 Kit Guide), but 1.5 μl instead of 1 μl sample were transferred to the wells.
The eluted circulating cell-free DNA was separated by size using chip gel electrophoresis (for details on the method see above, I, 4.1). […] The DMSO control and the K2E blood (not treated according to the teachings of the present invention) show the same ladder-like pattern of bands. This pattern occurs in samples where apoptosis takes place. During apoptosis, endonucleases degrade genomic DNA at inter-nucleosomal linker regions and produce DNA fragments of circa 180 bp or multiples of 180 bp. Thus, apoptosis occurs in samples which show a clear ladder-like pattern. Furthermore, the strength (darkness) of the pattern is decisive. The darker the bands, the more genomic DNA was released from the cells and thus contaminates the extracellular nucleic acid population.

whole blood samples [3] = assay: 18S DNA duplex real time PCR assay: increase of ribosomal 18S DNA (ccfDNA) in plasma of stored whole blood; format: cell-based, human; details: for increase of ribosomal 18S DNA in plasma: Example 1, 20 μM in whole blood; for increase of ribosomal 18S DNA in plasma / increase of genomic DNA in plasma: within 7 days of storage at RT; for increase of genomic DNA in plasma: Example 2; for change of ccfDNA level in plasma (day X copies/day 0 copies): Example 8, RT up to 6 days, DHA 0.5 M, inositol 0.05 M, maltitol 0.01 M, mannitol
Description: A test system was designed, wherein cell-containing biological samples, here whole blood samples, were incubated at room temperature (RT) for up to 6 or 7 days. Therein, the sample stabilizing properties of the additives of the present invention were tested on day 0, day 3 and day 6/7 the samples.
as §1
4.2. DNA quantification with a real time PCR assay, sensitive for DNA degradation (target: 500 and 66 bp long ribosomal 18S DNA coding sequences).
(samples were diluted 1:10 before amplification)
Detection of ribosomal 18S DNA by quantitative real-time PCR, makes it possible to calculate the x-fold increase of DNA from day 0 to day 3 or 7 (calculation: division of day 3 (or 7) copies by day 0 copies).
The division of short amplicon copy number by long amplicon copy number (66 bp/500 bp) indicates whether the amount of detected short or long amplicons changes over time in a similar way. A decrease of this ratio implies a stronger release of longer rather than of shorter DNA molecules and can be interpreted as release of high molecular weight genomic DNA from blood cells.
On day 0, day 3 and day 6, replicates were processed as follows. […] The cleared plasma fraction was collected and the extracellular nucleic acids were isolated using the QIAamp Circulating nucleic acid kit (1 ml input material, 60 μl elution volume). […] Values that are close to 1 imply preserved levels of ccfDNA. The higher the value, the less stabilization is achieved.

cathepsin L, sequence (P07711 114-333, species assumed): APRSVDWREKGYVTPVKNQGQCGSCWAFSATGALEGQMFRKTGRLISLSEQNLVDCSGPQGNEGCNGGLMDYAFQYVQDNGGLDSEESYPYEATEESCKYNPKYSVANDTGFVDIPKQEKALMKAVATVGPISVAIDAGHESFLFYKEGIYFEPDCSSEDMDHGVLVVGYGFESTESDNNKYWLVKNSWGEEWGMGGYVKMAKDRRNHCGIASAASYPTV

CC(C)C[C@H](NC(=O)OCc1ccccc1)C(=O)N[C@@H](CC(C)C)C(=O)N[C@@H](Cc1ccc(O)cc1)C(=O)CF [Calpain Inhibitor IV, Z-Leu-Leu-Tyr-CH2F] (Cbz-Leu-Leu-Tyr-CH2F)
k2 (calpain II): 28,900 M-1s-1). Also acts as an inhibitor of cathepsin L (k2 =
k2 (cathepsin L): 680,000 M-1s-1).

CC(NC(=O)OCc1ccccc1)C(=O)NC(C)C(=O)NC(CC(=O)O)C(=O)CCl (stereo not drawn) [Granzyme B Inhibitor I, Z-Ala-Ala-Asp-CH2Cl] (Cbz-Ala-Ala-Asp-CH2Cl; configuration not given here)
pIC50 (fragmentin 2): 6.52

N=c1sc2c(n1CC(=O)c1ccc([N+](=O)[O-])cc1)CCCC2 [Pifithrin-α, ρ-Nitro]
more potent than Pifithrin-α in vivo [1]: 100-fold more potent than Pifithrin-α when adminstered in rats in

CC(C)C(NC(=O)c1ccc2ccccc2n1)C(=O)NC(CC(=O)O)C(=O)COc1c(F)cccc1F (stereo not drawn) [Q-VD-OPh, Quinoline-Val-Asp-CH2-OPH]
ladder-like pattern (release/fragmentation of genomic DNA) (whole blood samples [2]): significantly reduced ladder-like patterns
genomic DNA release/fragmentation (whole blood samples [2]; 1 μM with 21.4 mM glucose): significantly reduced
genomic DNA release/fragmentation (whole blood samples [2]; 4 μM with 21.4 mM glucose): effect is improved
increase of ribosomal 18S DNA in plasma (whole blood samples [3]): reduced increase of DNA
increase of genomic DNA in plasma (whole blood samples [3]; 1 μM with 21 mM glucose): only a minor increase
increase of genomic DNA in plasma (whole blood samples [3]; 4 μM with 21 mM glucose): ≤ 4 fold

O[C@H]1[C@H](O)[C@@H](O)[C@H](O)[C@@H](O)[C@H]1O [inositol, Cyclohexane-1,2,3,4,5,6-geksol]
change of ccfDNA level in plasma (day X copies/day 0 copies) (whole blood samples [3]): suitable alternatives

OC[C@@H](O)[C@@H](O[C@H]1O[C@H](CO)[C@@H](O)[C@H](O)[C@H]1O)[C@H](O)[C@@H](O)CO [maltitol, 4-O-α-D-Glucopyranosyl-D-glucitol]
change of ccfDNA level in plasma (day X copies/day 0 copies) (whole blood samples [3]): suitable alternatives

OCC(O)C(O)C(O)C(O)CO (stereo not drawn) [mannitol, Hexane-1,2,3,4,5,6-hexol]
change of ccfDNA level in plasma (day X copies/day 0 copies) (whole blood samples [3]): stabilization effects over 3 days

Cbz-Val-Ala-Asp(OMe)-CH2F
ladder-like pattern (release/fragmentation of genomic DNA) (whole blood samples [2]): reduced ladder-like pattern
increase of ribosomal 18S DNA in plasma (whole blood samples [3]): more prominent on day 7
